Experiments:
Experiment in all cases: relative viability (nuclei count vs DMSO), 5 days (fraction); higher = more cells survive
[1] = system: HARA
Summary of the method: (§1)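 Dosing by pin tool came one day after lung cancer cell lines were seeded in 1536-well plates, using either one drug or a fixed anchor-drug dose plus five library-drug doses (not always all listed) in √10 steps. After 5 days, nuclei were counted on 4× images. Relative viability is treated-well nuclei count divided by vehicle-well nuclei count, and values are medians of duplicate plates.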

[2] = system: BEN
Summary of the method: as §1

[3] = system: NCI-H1666
Summary of the method: as §1

[4] = system: NCI-H1915
Summary of the method: as §1

[5] = system: NCI-H1563
Summary of the method: as §1

[6] = system: NCI-H1395
Summary of the method: as §1

[7] = system: NCI-H23
Summary of the method: as §1

[8] = system: NCI-H2023
Summary of the method: as §1

[9] = system: A-427
Summary of the method: as §1

[10] = system: PC-3 [JPC-3]
Summary of the method: as §1

[11] = system: LXF-289
Summary of the method: as §1

[12] = system: SK-LU-1
Summary of the method: as §1

[13] = system: NCI-H460
Summary of the method: as §1

[14] = system: LU99A
Summary of the method: as §1

[15] = system: NCI-H322M
Summary of the method: as §1

[16] = system: NCI-H2170
Summary of the method: as §1

[17] = system: NCI-H441
Summary of the method: as §1

[18] = system: NCI-H1793
Summary of the method: as §1

[19] = system: NCI-H2342
Summary of the method: as §1

[20] = system: LOU-NH91
Summary of the method: as §1

[21] = system: NCI-H2126
Summary of the method: as §1

[22] = system: LCLC-97TM1
Summary of the method: as §1

COCC1(CO)C(=O)C2CCN1CC2 (stereo not given) [PRIMA-1MET] + COc1cc2c(Oc3ccc(NC(=O)C4(C(=O)Nc5ccc(F)cc5)CC4)cc3F)ccnc2cc1OCCCN1CCOCC1 [Foretinib] (partner 0.25 µM) gave a relative viability ([1]; first compound 0.2 µM) of 1, a relative viability ([1]; first compound 0.6325 µM) of 0.881 and a relative viability ([1]; first compound 6.325 µM) of 0.742. The relative viability ([1]; first compound 20 µM) was 0.704, the relative viability ([2]; first compound 0.2 µM) was 0.653 and the relative viability ([2]; first compound 0.6325 µM) was 0.586. The relative viability ([2]; first compound 6.325 µM) was 0.741, the relative viability ([2]; first compound 20 µM) was 0.954 and the relative viability ([3]; first compound 0.2 µM) was 0.959. The relative viability ([3]; first compound 0.6325 µM) was 0.906, the relative viability ([3]; first compound 2 µM) was 0.942 and the relative viability ([3]; first compound 6.325 µM) was 0.952. It also gave a relative viability ([3]; first compound 20 µM) of 0.908, a relative viability ([4]; first compound 0.2 µM) of 1.12 and a relative viability ([4]; first compound 0.6325 µM) of 0.958. It also gave a relative viability ([4]; first compound 6.325 µM) of 1.08, a relative viability ([4]; first compound 20 µM) of 1.05 and a relative viability ([5]; first compound 0.2 µM) of 1.05. It also gave a relative viability ([5]; first compound 0.6325 µM) of 1, a relative viability ([5]; first compound 2 µM) of 0.838 and a relative viability ([5]; first compound 6.325 µM) of 0.911. The relative viability ([5]; first compound 20 µM) was 0.288, the relative viability ([6]; first compound 0.2 µM) was 1.03 and the relative viability ([6]; first compound 0.6325 µM) was 0.652. It also gave a relative viability ([6]; first compound 2 µM) of 1.05, a relative viability ([6]; first compound 6.325 µM) of 1 and a relative viability ([6]; first compound 20 µM) of 0.971. It also gave a relative viability ([7]; first compound 0.2 µM) of 1.09, a relative viability ([7]; first compound 0.6325 µM) of 1 and a relative viability ([7]; first compound 2 µM) of 0.861. For the same compound, the relative viability ([7]; first compound 6.325 µM) was 0.966, the relative viability ([7]; first compound 20 µM) was 0.257 and the relative viability ([8]; first compound 0.2 µM) was 1.03. The relative viability ([8]; first compound 0.6325 µM) was 0.781, the relative viability ([8]; first compound 2 µM) was 0.827 and the relative viability ([8]; first compound 6.325 µM) was 0.915. It also gave a relative viability ([8]; first compound 20 µM) of 0.813, a relative viability ([9]; first compound 0.2 µM) of 0.902 and a relative viability ([9]; first compound 0.6325 µM) of 0.837. It also gave a relative viability ([9]; first compound 2 µM) of 0.895, a relative viability ([9]; first compound 6.325 µM) of 0.983 and a relative viability ([9]; first compound 20 µM) of 0.953. For the same compound, the relative viability ([10]; first compound 0.2 µM) was 1.12, the relative viability ([10]; first compound 0.6325 µM) was 0.942 and the relative viability ([10]; first compound 2 µM) was 1.05. It also gave a relative viability ([10]; first compound 6.325 µM) of 1.07, a relative viability ([10]; first compound 20 µM) of 0.935 and a relative viability ([11]; first compound 0.2 µM) of 1.05. For the same compound, the relative viability ([11]; first compound 0.6325 µM) was 0.95, the relative viability ([11]; first compound 2 µM) was 0.993 and the relative viability ([11]; first compound 6.325 µM) was 1.02. It also gave a relative viability ([11]; first compound 20 µM) of 0.949, a relative viability ([12]; first compound 0.2 µM) of 1 and a relative viability ([12]; first compound 0.6325 µM) of 0.863. It also gave a relative viability ([12]; first compound 2 µM) of 0.885, a relative viability ([12]; first compound 6.325 µM) of 0.834 and a relative viability ([12]; first compound 20 µM) of 0.405. It also gave a relative viability ([13]; first compound 0.2 µM) of 1.08, a relative viability ([13]; first compound 0.6325 µM) of 0.949 and a relative viability ([13]; first compound 2 µM) of 0.963. The relative viability ([13]; first compound 6.325 µM) was 0.944, the relative viability ([13]; first compound 20 µM) was 0.359 and the relative viability ([14]; first compound 0.2 µM) was 0.84. The relative viability ([14]; first compound 0.6325 µM) was 0.806, the relative viability ([14]; first compound 2 µM) was 0.813 and the relative viability ([14]; first compound 6.325 µM) was 0.913. The relative viability ([14]; first compound 20 µM) was 0.394, the relative viability ([15]; first compound 0.2 µM) was 1.14 and the relative viability ([15]; first compound 0.6325 µM) was 0.911. The relative viability ([15]; first compound 6.325 µM) was 1.18, the relative viability ([15]; first compound 20 µM) was 0.931 and the relative viability ([16]; first compound 0.2 µM) was 1.04. For the same compound, the relative viability ([16]; first compound 0.6325 µM) was 0.921, the relative viability ([16]; first compound 2 µM) was 0.945 and the relative viability ([16]; first compound 6.325 µM) was 1.01. It also gave a relative viability ([16]; first compound 20 µM) of 0.94, a relative viability ([17]; first compound 0.2 µM) of 0.954 and a relative viability ([17]; first compound 0.6325 µM) of 0.908. For the same compound, the relative viability ([17]; first compound 2 µM) was 0.988, the relative viability ([17]; first compound 6.325 µM) was 1 and the relative viability ([17]; first compound 20 µM) was 0.496. For the same compound, the relative viability ([18]; first compound 0.2 µM) was 0.858, the relative viability ([18]; first compound 0.6325 µM) was 0.563 and the relative viability ([18]; first compound 6.325 µM) was 0.846. The relative viability ([18]; first compound 20 µM) was 0.491, the relative viability ([19]; first compound 0.2 µM) was 1.06 and the relative viability ([19]; first compound 0.6325 µM) was 0.986. For the same compound, the relative viability ([19]; first compound 2 µM) was 0.887, the relative viability ([19]; first compound 6.325 µM) was 1.01 and the relative viability ([19]; first compound 20 µM) was 0.99. For the same compound, the relative viability ([20]; first compound 0.2 µM) was 1.04, the relative viability ([20]; first compound 0.6325 µM) was 0.992 and the relative viability ([20]; first compound 2 µM) was 0.861. The relative viability ([20]; first compound 6.325 µM) was 1, the relative viability ([20]; first compound 20 µM) was 0.8 and the relative viability ([21]; first compound 0.2 µM) was 1.3. It also gave a relative viability ([21]; first compound 0.6325 µM) of 0.993, a relative viability ([21]; first compound 2 µM) of 1.22 and a relative viability ([21]; first compound 6.325 µM) of 1.23. It also gave a relative viability ([21]; first compound 20 µM) of 1.13, a relative viability ([22]; first compound 0.2 µM) of 0.915 and a relative viability ([22]; first compound 0.6325 µM) of 0.909. For the same compound, the relative viability ([22]; first compound 2 µM) was 0.926, the relative viability ([22]; first compound 6.325 µM) was 0.945 and the relative viability ([22]; first compound 20 µM) was 0.826.
